Experiments:
Type in all cases: cell-based, human
[1] = system: IRF-1; assay: TNF-alpha-induced IRF-1 RNA levels (Northern blot); settings: mean ± SD
Protocol: (§1) Cell culture and treatment of HAEC: Human aortic endothelial cells (HAEC; Cambrex Bio Science Walkersville, Inc., Walkersville, Md.) are cultured in M199 supplemented with 8% FBS, 100 μg/ml heparin, 10 ng/ml endothelial growth factor, 100 μg/ml hypothalamus extract, 2 mM L-glutamine, 1% non-essential amino acids, 100 units/ml penicillin and 100 μg/ml streptomycin. HAEC are subcultured on gelatin pre-coated: 96-well tissue culture plates (Corning Incorporated; Corning, N.Y.) for viability assays and ELISA; 100-mm tissue culture dishes (BD Falcon; Franklin Lakes, N.J.) for Northern blot analyses, Western blot analyses and EMSA; 35-mm tissue culture dishes (Corning) for adhesion assays and on 24-well tissue culture plates for luciferase promoter assays (BD Falcon). All experiments are performed with confluent HAEC monolayers. Unless noted otherwise, HAEC are treated with 25 ng/ml TNF-α, in the absence or presence of C-10 or 0.25% DMSO (carrier control for C-10), for 2-24 hrs. The concentration of DMSO is held constant at 0.25% (unless indicated otherwise) for all of the C-10 conditions.
(§2) HAEC are washed with PBS and total RNA extracted using a commercial kit (RNeasy Mini Kit; Qiagen Inc.; Valencia, Calif.). 12 μg of total RNA per lane is resolved on 1% denaturing agarose gels containing 0.66M formaldehyde. Gels are capillary blotted on Nytran membranes (Schleicher and Schuell Inc.; Keene, N.H.), UV cross-linked, and used for hybridization. The probe for IRF-1 has been previously described (33). The G3PDH cDNA is from Clontech (Palo Alto, Calif.). […]; cDNAs are labeled with α-^32P-dCTP using the Ladderman Labeling Kit (Takara Biochemical Inc.; Berkeley, Calif.) (33). Northern blots are developed using a BAS 1500 Bioimaging Analyzer (Fuji Photo Film Co., Ltd. Medical Systems USA Inc.; Stanford, Calif.). Each experiment is replicated at least twice.

[2] = system: VCAM-1 promoter; assay: TNF-alpha-induced VCAM-1 promoter activity, dual luciferase reporter assay in HAEC; settings: hVCAM-1(−228 to +12)-luciferase construct, mean ± SD; for inhibition at 5000 µM: Homo sapiens
Protocol: as §1
Dual Luciferase Assay: Four human VCAM-1 promoter deletion constructs of different length, −1641/+12, −288/+12, −228/+12, −85/+12 bp are amplified by PCR from human genomic DNA. Each upstream primer contained a restriction endonuclease Mlu I site located at the 5′-end of the primer. The downstream primer corresponding to the +12 end contained a restriction endonuclease Xho I site at the 5′-end. The PCR products are digested by Mlu I and Xho I (New England Biolabs Inc., Beverly, Mass.) and ligated into a similarly digested pGL3 basic luciferase reporter vector (Promega, Madison, Wis.). Cells are transfected for 24 hrs. with 400 ng of indicated constructs, or pGL3 basic luciferase reporter vector as control, using GeneJuice transfection reagent (Novagen Inc., Madison, Wis.). All cells are also transfected with phRL-TK (Int−) vector (Promega), which contains wildtype Renilla luciferase (Rluc) as an “internal” transfection control. Luciferase assays are conducted with the Dual-Luciferase Reporter Assay System (Promega) on a Lumat LB 9507 tube luminometer. In every experiment, each condition is run in triplicate wells. Each experiment is replicated at least twice.

[3] = system: IRF-1; assay: TNF-alpha-induced IRF-1 protein levels (Western blot); settings: mean ± SD
Protocol: as §1
Western blot analysis: Whole cell lysates are prepared in lysis buffer (150 mM NaCl, 1% IGEPAL CA-630, 50 mM Tris-HCL pH 8.0). 20 μg of lysates are then resolved on 4-12% Bis-Tris PAGE gels under denaturing conditions using the NuPAGE Bis-Tris System (Invitrogen; Carlsbad, Calif.). Proteins are transferred to nitrocellulose membranes, which are probed with IRF-1 antibody. Subsequent binding of HRP conjugated goat anti-rabbit Ab (sc-2054, Santa Cruz Biotechnology, Inc.) is detected using Lumigen PS-3 detection reagents (Amersham Pharmacia Biotech.; Piscataway, N.J.).

[4] = system: VCAM-1; assay: TNF-alpha-induced VCAM-1 RNA levels in aortic endothelial cells (Northern blot); settings: aortic endothelial cells, mean ± SD
Protocol: as §1, §2

1-Methyl-2-Thiomethyl-5(4)nitroimidazole
% INIHIBITION of TNF-alpha-induced IRF-1 RNA levels ([1]; 5 mM): 95 ± 12% | % INIHIBITION of TNF-alpha-induced IRF-1 RNA levels ([1]; 10 :M): 26 ± 12% | % INIHIBITION of TNF-alpha-induced IRF-1 RNA levels ([1]; 100 :M): 64 ± 16% | % INHIBITION of TNF-alpha-induced VCAM-1 promoter activity ([2]; 5.0 mM): 58 ± 6% | % INHIBITION of TNF-alpha-induced VCAM-1 promoter activity ([2]; 10 :M): 29 ± 6% | % INHIBITION of TNF-alpha-induced VCAM-1 promoter activity ([2]; 100 :M): 54 ± 10% | % INHIBITION of TNF-alpha-induced IRF-1 Protein levels ([3]; 5 mM): 95 ± 12% | % INHIBITION of TNF-alpha-induced IRF-1 Protein levels ([3]; 10 :M): 46 ± 15% | % INHIBITION of TNF-alpha-induced IRF-1 Protein levels ([3]; 100 :M): 69 ± 10% | % INHIBITION of TNF-alpha-induced VCAM-1 RNA levels ([4]; 5.0 mM): 92 ± 5% | % INHIBITION of TNF-alpha-induced VCAM-1 RNA levels ([4]; 10 :M): 34 ± 6% | % INHIBITION of TNF-alpha-induced VCAM-1 RNA levels ([4]; 100 :M): 83 ± 10%

Cc1ccc2[nH]c(S)nc2c1 [2-mercapto-5-methylbenzimididazole, 2-Mercapto-5-methylbenzimidazole]
% INHIBITION of TNF-alpha-induced VCAM-1 RNA levels ([4]; 5.0 mM): 11 ± 7%

Sc1nc2ccccc2[nH]1 [2-mercaptobenzimidazole, 2-Mercaptobenzimidazole]
% INHIBITION of TNF-alpha-induced VCAM-1 promoter activity ([2]; 10 :M): 0% | % INHIBITION of TNF-alpha-induced VCAM-1 promoter activity ([2]; 100 :M): 0% | inhibition at 5000 µM ([2]; 5.0 mM): 30 ± 4% | % INHIBITION of TNF-alpha-induced VCAM-1 RNA levels ([4]; 5.0 mM): 26 ± 10% | % INHIBITION of TNF-alpha-induced VCAM-1 RNA levels ([4]; 10 :M): 0% | % INHIBITION of TNF-alpha-induced VCAM-1 RNA levels ([4]; 100 :M): 0%

Sc1ncc[nH]1 [2-mercaptoimidazole, 2-Mercaptoimidazole]
% INIHIBITION of TNF-alpha-induced IRF-1 RNA levels ([1]; 5 mM): 0% | % INIHIBITION of TNF-alpha-induced IRF-1 RNA levels ([1]; 10 :M): 0% | % INIHIBITION of TNF-alpha-induced IRF-1 RNA levels ([1]; 100 :M): 0% | inhibition at 5000 µM ([2]; 5.0 mM): 0% | % INHIBITION of TNF-alpha-induced VCAM-1 RNA levels ([4]; 5.0 mM): None | % INHIBITION of TNF-alpha-induced VCAM-1 RNA levels ([4]; 10 :M): None | % INHIBITION of TNF-alpha-induced VCAM-1 RNA levels ([4]; 100 :M): None

Cc1cnc(S)n1C [5-methylmethimazole, 5-Methylmethimazole]
% INHIBITION of TNF-alpha-induced VCAM-1 promoter activity ([2]; 10 :M): 0% | % INHIBITION of TNF-alpha-induced VCAM-1 promoter activity ([2]; 100 :M): 0% | inhibition at 5000 µM ([2]; 5.0 mM): 14 ± 8%

Cn1ccnc1S [Methimazole, 1-Methylimidazole-2-thiol]
% INIHIBITION of TNF-alpha-induced IRF-1 RNA levels ([1]; 5 mM): 27 ± 12% | % INIHIBITION of TNF-alpha-induced IRF-1 RNA levels ([1]; 10 :M): 0% | % INIHIBITION of TNF-alpha-induced IRF-1 RNA levels ([1]; 100 :M): 0% | inhibition at 5000 µM ([2]; 5.0 mM): 0% | % INHIBITION of TNF-alpha-induced IRF-1 Protein levels ([3]; 10 :M): 0% | % INHIBITION of TNF-alpha-induced IRF-1 Protein levels ([3]; 100 :M): 0% | inhibition at 5000 µM ([3]; Homo sapiens, 5 mM): 17 ± 6% | % INHIBITION of TNF-alpha-induced VCAM-1 RNA levels ([4]; 5.0 mM): 20 ± 10% | % INHIBITION of TNF-alpha-induced VCAM-1 RNA levels ([4]; 10 :M): 0% | % INHIBITION of TNF-alpha-induced VCAM-1 RNA levels ([4]; 100 :M): 0%

Cn1ccn(C)c1=S [N-methylmethimazole, N-Methylmethimazole]
% INIHIBITION of TNF-alpha-induced IRF-1 RNA levels ([1]; 5 mM): 75 ± 14% | % INIHIBITION of TNF-alpha-induced IRF-1 RNA levels ([1]; 10 :M): 0% | % INIHIBITION of TNF-alpha-induced IRF-1 RNA levels ([1]; 100 :M): 34 ± 15% | % INHIBITION of TNF-alpha-induced VCAM-1 promoter activity ([2]; 10 :M): 6 ± 2% | % INHIBITION of TNF-alpha-induced VCAM-1 promoter activity ([2]; 100 :M): 44 ± 11% | inhibition at 5000 µM ([2]; 5.0 mM): 31 ± 3% | % INHIBITION of TNF-alpha-induced VCAM-1 RNA levels ([4]; 5.0 mM): 47 ± 12% | % INHIBITION of TNF-alpha-induced VCAM-1 RNA levels ([4]; 10 :M): 0% | % INHIBITION of TNF-alpha-induced VCAM-1 RNA levels ([4]; 100 :M): 31 ± 10%
